Measured values taken from BigSolDB 2.1.

## CC(=O)N1CCN(c2ccc(O)cc2)CC1
In 2-butoxyethanol, 283.15 K
  solubility (mole fraction): 0.00309
In 2-butoxyethanol, 288.15 K
  solubility (mole fraction): 0.00373
In 2-butoxyethanol, 293.15 K
  solubility (mole fraction): 0.00457
In 2-butoxyethanol, 298.15 K
  solubility (mole fraction): 0.00537
In 2-butoxyethanol, 303.15 K
  solubility (mole fraction): 0.00617
In 2-butoxyethanol, 308.15 K
  solubility (mole fraction): 0.00726
In 2-butoxyethanol, 313.15 K
  solubility (mole fraction): 0.00852
In 2-butoxyethanol, 318.15 K
  solubility (mole fraction): 0.0102
In 2-butoxyethanol, 323.15 K
  solubility (mole fraction): 0.0118
In 2-ethoxyethanol, 283.15 K
  solubility (mole fraction): 0.00486
In 2-ethoxyethanol, 288.15 K
  solubility (mole fraction): 0.0059
In 2-ethoxyethanol, 293.15 K
  solubility (mole fraction): 0.00705
In 2-ethoxyethanol, 298.15 K
  solubility (mole fraction): 0.00829
In 2-ethoxyethanol, 303.15 K
  solubility (mole fraction): 0.00963
In 2-ethoxyethanol, 308.15 K
  solubility (mole fraction): 0.0112
In 2-ethoxyethanol, 313.15 K
  solubility (mole fraction): 0.0134
In 2-ethoxyethanol, 318.15 K
  solubility (mole fraction): 0.0156
In 2-ethoxyethanol, 323.15 K
  solubility (mole fraction): 0.0179
In 2-methoxyethanol, 283.15 K
  solubility (mole fraction): 0.00715
In 2-methoxyethanol, 288.15 K
  solubility (mole fraction): 0.00822
In 2-methoxyethanol, 293.15 K
  solubility (mole fraction): 0.00968
In 2-methoxyethanol, 298.15 K
  solubility (mole fraction): 0.0114
In 2-methoxyethanol, 303.15 K
  solubility (mole fraction): 0.0133
In 2-methoxyethanol, 308.15 K
  solubility (mole fraction): 0.0153
In 2-methoxyethanol, 313.15 K
  solubility (mole fraction): 0.0181
In 2-methoxyethanol, 318.15 K
  solubility (mole fraction): 0.0212
In 2-methoxyethanol, 323.15 K
  solubility (mole fraction): 0.0242
In 2-propoxyethanol, 283.15 K
  solubility (mole fraction): 0.00403
In 2-propoxyethanol, 288.15 K
  solubility (mole fraction): 0.00474
In 2-propoxyethanol, 293.15 K
  solubility (mole fraction): 0.00574
In 2-propoxyethanol, 298.15 K
  solubility (mole fraction): 0.00686
In 2-propoxyethanol, 303.15 K
  solubility (mole fraction): 0.00813
In 2-propoxyethanol, 308.15 K
  solubility (mole fraction): 0.00951
In 2-propoxyethanol, 313.15 K
  solubility (mole fraction): 0.011
In 2-propoxyethanol, 318.15 K
  solubility (mole fraction): 0.0128
In 2-propoxyethanol, 323.15 K
  solubility (mole fraction): 0.015
In acetonitrile, 283.15 K
  solubility (mole fraction): 0.001
In acetonitrile, 288.15 K
  solubility (mole fraction): 0.00124
In acetonitrile, 293.15 K
  solubility (mole fraction): 0.0015
In acetonitrile, 298.15 K
  solubility (mole fraction): 0.00181
In acetonitrile, 303.15 K
  solubility (mole fraction): 0.00217
In acetonitrile, 308.15 K
  solubility (mole fraction): 0.00259
In acetonitrile, 313.15 K
  solubility (mole fraction): 0.00304
In acetonitrile, 318.15 K
  solubility (mole fraction): 0.00359
In acetonitrile, 323.15 K
  solubility (mole fraction): 0.00433
In ethanol, 283.15 K
  solubility (mole fraction): 0.00218
In ethanol, 288.15 K
  solubility (mole fraction): 0.00273
In ethanol, 293.15 K
  solubility (mole fraction): 0.00328
In ethanol, 298.15 K
  solubility (mole fraction): 0.00396
In ethanol, 303.15 K
  solubility (mole fraction): 0.00467
In ethanol, 308.15 K
  solubility (mole fraction): 0.00551
In ethanol, 313.15 K
  solubility (mole fraction): 0.00634
In ethanol, 318.15 K
  solubility (mole fraction): 0.00749
In ethanol, 323.15 K
  solubility (mole fraction): 0.00887
In ethylene glycol, 283.15 K
  solubility (mole fraction): 0.000479
In ethylene glycol, 288.15 K
  solubility (mole fraction): 0.000658
In ethylene glycol, 293.15 K
  solubility (mole fraction): 0.000921
In ethylene glycol, 298.15 K
  solubility (mole fraction): 0.00123
In ethylene glycol, 303.15 K
  solubility (mole fraction): 0.00167
In ethylene glycol, 308.15 K
  solubility (mole fraction): 0.00225
In ethylene glycol, 313.15 K
  solubility (mole fraction): 0.00293
In ethylene glycol, 318.15 K
  solubility (mole fraction): 0.00405
In ethylene glycol, 323.15 K
  solubility (mole fraction): 0.00538
In isobutanol, 283.15 K
  solubility (mole fraction): 0.00108
In isobutanol, 288.15 K
  solubility (mole fraction): 0.00141
In isobutanol, 293.15 K
  solubility (mole fraction): 0.00172
In isobutanol, 298.15 K
  solubility (mole fraction): 0.00214
In isobutanol, 303.15 K
  solubility (mole fraction): 0.00251
In isobutanol, 308.15 K
  solubility (mole fraction): 0.00292
In isobutanol, 313.15 K
  solubility (mole fraction): 0.00353
In isobutanol, 318.15 K
  solubility (mole fraction): 0.00415
In isobutanol, 323.15 K
  solubility (mole fraction): 0.00508
In isopropanol, 283.15 K
  solubility (mole fraction): 0.00132
In isopropanol, 288.15 K
  solubility (mole fraction): 0.00165
In isopropanol, 293.15 K
  solubility (mole fraction): 0.00204
In isopropanol, 298.15 K
  solubility (mole fraction): 0.00263
In isopropanol, 303.15 K
  solubility (mole fraction): 0.00327
In isopropanol, 308.15 K
  solubility (mole fraction): 0.00418
In isopropanol, 313.15 K
  solubility (mole fraction): 0.00526
In isopropanol, 318.15 K
  solubility (mole fraction): 0.00636
In isopropanol, 323.15 K
  solubility (mole fraction): 0.00796
In methanol, 283.15 K
  solubility (mole fraction): 0.00286
In methanol, 288.15 K
  solubility (mole fraction): 0.00346
In methanol, 293.15 K
  solubility (mole fraction): 0.00411
In methanol, 298.15 K
  solubility (mole fraction): 0.00485
In methanol, 303.15 K
  solubility (mole fraction): 0.00581
In methanol, 308.15 K
  solubility (mole fraction): 0.00679
In methanol, 313.15 K
  solubility (mole fraction): 0.00806
In methanol, 318.15 K
  solubility (mole fraction): 0.00952
In methanol, 323.15 K
  solubility (mole fraction): 0.0111
In n-butanol, 283.15 K
  solubility (mole fraction): 0.00119
In n-butanol, 288.15 K
  solubility (mole fraction): 0.00151
In n-butanol, 293.15 K
  solubility (mole fraction): 0.00186
In n-butanol, 298.15 K
  solubility (mole fraction): 0.00232
In n-butanol, 303.15 K
  solubility (mole fraction): 0.00298
In n-butanol, 308.15 K
  solubility (mole fraction): 0.00392
In n-butanol, 313.15 K
  solubility (mole fraction): 0.00488
In n-butanol, 318.15 K
  solubility (mole fraction): 0.00612
In n-butanol, 323.15 K
  solubility (mole fraction): 0.00765
In n-propanol, 283.15 K
  solubility (mole fraction): 0.00179
In n-propanol, 288.15 K
  solubility (mole fraction): 0.00206
In n-propanol, 293.15 K
  solubility (mole fraction): 0.00238
In n-propanol, 298.15 K
  solubility (mole fraction): 0.00306
In n-propanol, 303.15 K
  solubility (mole fraction): 0.00372
In n-propanol, 308.15 K
  solubility (mole fraction): 0.00459
In n-propanol, 313.15 K
  solubility (mole fraction): 0.00561
In n-propanol, 318.15 K
  solubility (mole fraction): 0.00683
In n-propanol, 323.15 K
  solubility (mole fraction): 0.00829
